Measurements reported in US10112933B2, “Methods and compositions for treatment of fibrosis” (Baylor College of Medicine, priority 2013, dated 2018).

biological target: recombinant Stat3 (binding to EGFR Y1068 phosphododecapeptide) (Homo sapiens, UniProt P40763); assay: Stat3 SH2/pY-peptide SPR binding inhibition assay; conditions: Stat3 500 nM, immobilized EGFR Y1068 phosphododecapeptide; read-out: SPR IC50 (competition with pY-peptide for binding to Stat3)
Source text: Data shown are representative of 2 or more experiments. The equilibrium binding levels obtained in the absence or presence of compounds were normalized (response obtained in the presence of compound÷the response obtained in the absence of compound×100), plotted against the log concentration (nM) of the compounds (panel G). The experimental points fit to a competitive binding curve that uses a four-parameter logistic equation (see exemplary methods for details). These curves were used to calculate IC50 (Table 1).
Stat3 SH2/pY-peptide binding assay. Stat3 binding assays were performed at 25° C. with a BIAcore 3000 biosensor using 20 mM Tris buffer pH 8 containing 2 mM mercaptoethanol and 5% DMSO as the running buffer (Kim et al., 2005). Phosphorylated and control non-phosphorylated biotinylated EGFR derived dodecapeptides based on the sequence surrounding Y1068 (Shao et al., 2004) were immobilized on a streptavidin coated sensor chip (BIAcore inc., Picataway N.J.). The binding of Stat3 was conducted in 20 mM Tris buffer pH 8 containing 2 mM β-mercaptoethanol at a flow rate of 10 uL/min for 1-2 minute. Aliquots of Stat3 at 500 nM were premixed with compound to achieve a final concentration of 1-1,000 uM and incubated at 4° C. prior to being injected onto the sensor chip. The chip was regenerated by injecting 10 uL of 100 mM glycine at pH 1.5 after each sample injection. A control (Stat3 with DMSO but without compound) was run at the beginning and the end of each cycle (40 sample injections) to ensure that the integrity of the sensor chip was maintained throughout the cycle run. The average of the two controls was normalized to 100% and used to evaluate the effect of each compound on Stat3 binding. Responses were normalized by dividing the value at 2 min by the response obtained in the absence of compounds at 2 min and multiplying by 100. IC50 values were determined by plotting % maximum response as a function of log concentration of compound and fitting the experimental points to a competitive binding model using a four parameter logistic equation: R=Rhigh−(Rhigh−Rlow)/(1+conc/A1)^A2, where R=percent response at inhibitor concentration, Rhigh=percent response with no compound, Rlow=percent response at highest compound concentration, A2=fitting parameter (slope) and A1=IC50 (BIAevaluation Software version 4.1).
EXP IIA. Stat3/pY-peptide SPR binding inhibition assay. Stat3 pY-peptide binding assays is performed at 25° C. using a BIAcore 3000 biosensor as described (Xu et al., 2009). Briefly, phosphorylated and control nonphosphorylated biotinylated EGFR derived dodecapeptides based on the sequence surrounding Y1068 are immobilized on a streptavidin coated sensor chip (BIAcore Inc., Piscataway N.J.). […]

Chain of recombinant Stat3 (binding to EGFR Y1068 phosphododecapeptide) (P40763 whole entry, species assumed): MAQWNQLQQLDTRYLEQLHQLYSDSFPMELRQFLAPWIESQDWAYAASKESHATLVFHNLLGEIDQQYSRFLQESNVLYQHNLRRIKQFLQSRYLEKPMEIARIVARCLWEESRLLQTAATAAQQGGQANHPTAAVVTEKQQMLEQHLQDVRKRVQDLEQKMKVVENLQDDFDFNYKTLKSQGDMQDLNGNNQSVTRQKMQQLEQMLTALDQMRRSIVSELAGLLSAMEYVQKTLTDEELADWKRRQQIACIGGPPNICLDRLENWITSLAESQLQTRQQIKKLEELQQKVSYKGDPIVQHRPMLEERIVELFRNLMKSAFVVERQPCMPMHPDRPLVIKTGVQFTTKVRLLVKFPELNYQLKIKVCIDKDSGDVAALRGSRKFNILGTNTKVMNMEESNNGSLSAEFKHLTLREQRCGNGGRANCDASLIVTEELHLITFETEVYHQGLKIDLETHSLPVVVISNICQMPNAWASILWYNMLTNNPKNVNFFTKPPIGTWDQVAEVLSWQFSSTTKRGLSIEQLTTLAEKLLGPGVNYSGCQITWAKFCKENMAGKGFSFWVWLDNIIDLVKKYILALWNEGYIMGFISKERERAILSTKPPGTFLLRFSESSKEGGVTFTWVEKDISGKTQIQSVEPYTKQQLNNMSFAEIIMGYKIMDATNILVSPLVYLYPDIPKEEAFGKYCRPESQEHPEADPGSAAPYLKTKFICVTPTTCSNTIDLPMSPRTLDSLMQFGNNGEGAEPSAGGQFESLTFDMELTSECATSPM

Compound	IC50 [µM]
CCOc1cc(C=C2C(=O)c3ccccc3C2=O)cc(Cl)c1OCc1cccc(C(=O)O)c1 [Cpd3-2, 3-({2-chloro-4-[(1,3-dioxo-1,3-dihydro-2H-inden-2-ylidene)methyl]-6-ethoxyphenoxy}methyl)benzoic acid]	256
O=C(O)c1ccc(C=CC(=O)c2ccc3c(c2)OCCO3)cc1 [Cpd3, 4-[3-(2,3-dihydro-1,4-benzodioxin-6-yl)-3-oxo-1-propen-1-yl]benzoic acid]	447
CCN1C(=O)C(=Cc2ccc(-c3cc(C(=O)O)ccc3Cl)o2)C(=O)N(CC)C1=S [Cpd30-12, 4-chloro-3-{5-[(1,3-diethyl-4,6-dioxo-2-thioxotetrahydro-5(2H)-pyrimidinylidene)methyl]-2-furyl}benzoic acid]	114
